Values joined by “and” are separate entries in the source; they are usually repeats but may differ in a detail not shown here. Identical values can stand only once. Inconclusive results and toxic doses are left out. How the source made its calls: active means survival T/C of 150% or more; inactive means T/C below 125% in these data.
Test system: P388 leukemia ip, CD2F1 mice, survival T/C
Experiment: NCI In Vivo Anticancer Drug Screen. Data for tumor model P388 Leukemia (intraperitoneal) in CD2F1 (CDF1) mice
Conditions: endpoint: median survival time, higher = longer survival
Procedure, shortened: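 Mice carrying the transplanted tumor received test compound or vehicle. Survival was recorded in each group, and the value is the treated-group measurement divided by that of the vehicle-treated control group.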

[1] = dose: 50.0 mg/kg/injection, schedule: Q01DX009 (ip), vehicle: saline with Tween-80
[2] = dose: 100.0 mg/kg/injection, schedule: Q01DX009 (ip), vehicle: saline with Tween-80
[3] = dose: 200.0 mg/kg/injection, schedule: Q01DX009 (ip), vehicle: saline with Tween-80
[4] = dose: 100.0 mg/kg/injection, schedule: Q01DX001 (ip), vehicle: saline with Tween-80
[5] = dose: 50.0 mg/kg/injection, schedule: Q01DX009 (ip), vehicle: Klucel (hydroxypropylcellulose) (HPC)
[6] = dose: 100.0 mg/kg/injection, schedule: Q01DX009 (ip), vehicle: Klucel (hydroxypropylcellulose) (HPC)
[7] = dose: 200.0 mg/kg/injection, schedule: Q01DX009 (ip), vehicle: Klucel (hydroxypropylcellulose) (HPC)
[8] = dose: 50.0 mg/kg/injection, schedule: Q01DX005 (ip), vehicle: Klucel (hydroxypropylcellulose) (HPC)
[9] = dose: 50.0 mg/kg/injection, schedule: Q01DX005 (ip), vehicle: saline with Tween-80
[10] = dose: 100.0 mg/kg/injection, schedule: Q01DX005 (ip), vehicle: Klucel (hydroxypropylcellulose) (HPC)
[11] = dose: 100.0 mg/kg/injection, schedule: Q01DX005 (ip), vehicle: saline with Tween-80
[12] = dose: 200.0 mg/kg/injection, schedule: Q01DX005 (ip), vehicle: saline with Tween-80
[13] = dose: 50.0 mg/kg/injection, schedule: Q01DX009 (ip), vehicle: saline
[14] = dose: 60.0 mg/kg/injection, schedule: Q01DX005 (ip), vehicle: saline with Tween-80
[15] = dose: 120.0 mg/kg/injection, schedule: Q01DX005 (ip), vehicle: saline with Tween-80
[16] = dose: 240.0 mg/kg/injection, schedule: Q01DX005 (ip), vehicle: saline with Tween-80
[17] = dose: 100.0 mg/kg/injection, schedule: Q04DX003 (ip), vehicle: saline with Tween-80
[18] = dose: 200.0 mg/kg/injection, schedule: Q04DX003 (ip), vehicle: saline with Tween-80
[19] = dose: 400.0 mg/kg/injection, schedule: Q04DX003 (ip), vehicle: saline with Tween-80
[20] = dose: 12.5 mg/kg/injection, schedule: Q04DX003 (ip), vehicle: saline with Tween-80
[21] = dose: 25.0 mg/kg/injection, schedule: Q04DX003 (ip), vehicle: saline with Tween-80
[22] = dose: 50.0 mg/kg/injection, schedule: Q04DX003 (ip), vehicle: saline with Tween-80

Measured: T/C

CC(C)(C)c1ccc(OCCSCCOc2ccc(C(C)(C)C)cc2)cc1
inactive: [1] 90 % of control | [2] 90 % of control | [3] 90 % of control

CC1=NN(C(=O)c2ccncc2)C(=O)C1N=Nc1ccc(S(=O)(=O)Nc2nc(C)cc(C)n2)cc1 (centres undefined)
inactive: [1] 104 % of control | [2] 95 % of control | [3] 95 % of control

c1ccc2c(c1)NCCOCCNc1ccccc1OCCNCCO2
inactive: dose: 25.0 mg/kg/injection, schedule: Q01DX001 (ip), vehicle: saline with Tween-80 100 % of control | dose: 50.0 mg/kg/injection, schedule: Q01DX001 (ip), vehicle: saline with Tween-80 96 % of control | [4] 89 % of control and 92 % of control

COc1ccc(NS(=O)(=O)c2ccc(C)cc2)c([N+](=O)[O-])c1
inactive: [5] 116 % of control | [6] 115 % of control | [7] 115 % of control

O=C(NCCCCCNC(=O)C12CC3CC(CC(C3)C1)C2)C12CC3CC(CC(C3)C1)C2
inactive: [8] 90 % of control | [9] 102 % of control | [10] 89 % of control | [11] 105 % of control | [12] 95 % of control

O=Cc1ccc(S(=O)(=O)F)cc1
inactive: [5] 99 % of control | [6] 97 % of control | [7] 93 % of control

CC([OH2+])CNCCN.CC([OH2+])CNCCN.O=[N+]([O-])[O-].[Cu+2] (centres undefined)
inactive: [13] 113 % of control

CCc1c(N2CCOCC2)c(C#N)c2nc3ccccc3n2c1N1CCOCC1
inactive: [14] 99 % of control | [15] 95 % of control | [16] 98 % of control

COc1cc(CN2CCCCC2)cc2cc(C(=O)O)c(=O)oc12
inactive: [9] 103 % of control | [11] 101 % of control | [12] 100 % of control

Cc1cc(CSCCc2nc3ccccc3[nH]2)c(O)c(CSCCc2nc3ccccc3[nH]2)c1
inactive: [14] 107 % of control | [15] 93 % of control | [16] 90 % of control

N#C[C@H]1C[C@@H](c2ccc([N+](=O)[O-])cc2)N(c2ccc(C=O)cc2)O1
inactive: [4] 98 % of control | dose: 200.0 mg/kg/injection, schedule: Q01DX001 (ip), vehicle: saline with Tween-80 98 % of control | dose: 400.0 mg/kg/injection, schedule: Q01DX001 (ip), vehicle: saline with Tween-80 99 % of control

C[CH2][GeH][CH2]C.C[CH2][Ge]([CH2]C)[CH2]C
inactive: [13] 93 % of control | dose: 100.0 mg/kg/injection, schedule: Q01DX009 (ip), vehicle: saline 90 % of control

CNc1nc(N)nc(Nc2ccc(I)cc2)c1N=O
inactive: [17] 109 % of control | [18] 109 % of control | [19] 109 % of control

CCCCCCCCCCCCCCCCC1(O)OC(=O)C(C)=C1C (centres undefined)
inactive: [20] 100 % of control | [21] 108 % of control | [22] 106 % of control

Cc1ccc(C(=O)Cc2nc(C#N)c(C#N)nc2CC(=O)c2ccc(C)cc2)cc1
inactive: [14] 112 % of control | [15] 120 % of control

N#Cc1cnn(-c2cc(Cl)c(Cl)cc2Cl)c1N
inactive: [17] 99 % of control | [18] 103 % of control | [19] 111 % of control

CCOc1cc2c(cc1C(CC)c1ccc(OCc3ccccc3)cc1)OCO2 (centres undefined)
inactive: [8] 92 % of control | [10] 87 % of control

CC(C)C1CC(N(C)C)=CC(=S)N1 (centres undefined)
inactive: [8] 106 % of control | [10] 110 % of control | dose: 100.0 mg/kg/injection, schedule: Q01DX005 (ip), vehicle: saline 93 % of control | dose: 200.0 mg/kg/injection, schedule: Q01DX005 (ip), vehicle: saline 102 % of control

Cc1c2ccccc2c(C)c2c1cc(C(=O)O)c1ccccc12
inactive: dose: 25.0 mg/kg/injection, schedule: Q01DX005 (ip), vehicle: saline with Tween-80 113 % of control | [9] 113 % of control and 116 % of control | [12] 124 % of control

O=C(O)Cc1cccc(=O)c(O)c1C(=O)O
inactive: [9] 98 % of control | [11] 104 % of control | [12] 96 % of control

Nc1nc2c(c(=O)[nH]1)NC(CN(C=O)c1ccc(C(=O)NC(CCC(=O)O)C(=O)O)cc1)CC2 (centres undefined)
inactive: dose: 50.0 mg/kg/injection, schedule: Q01DX001 (ip), vehicle: saline 99 % of control | dose: 100.0 mg/kg/injection, schedule: Q01DX001 (ip), vehicle: saline 100 % of control | dose: 200.0 mg/kg/injection, schedule: Q01DX001 (ip), vehicle: saline 91 % of control

NCCc1nc(-c2nc(C(=O)Nc3ccccc3)cs2)cs1
inactive: dose: 12.5 mg/kg/injection, schedule: Q01DX009 (ip), vehicle: distilled water + Tween-80 100 % of control | dose: 25.0 mg/kg/injection, schedule: Q01DX009 (ip), vehicle: distilled water + Tween-80 103 % of control | dose: 50.0 mg/kg/injection, schedule: Q01DX009 (ip), vehicle: distilled water + Tween-80 103 % of control | dose: 100.0 mg/kg/injection, schedule: Q01DX009 (ip), vehicle: distilled water + Tween-80 100 % of control

O=C1c2cccc(NCC3CO3)c2C(=O)c2cccc(NCC3CO3)c21 (centres undefined)
inactive: dose: 0.75 mg/kg/injection, schedule: Q01DX005 (ip), vehicle: Klucel (hydroxypropylcellulose) (HPC) 99 % of control | dose: 1.5 mg/kg/injection, schedule: Q01DX005 (ip), vehicle: Klucel (hydroxypropylcellulose) (HPC) 107 % of control | dose: 3.0 mg/kg/injection, schedule: Q01DX005 (ip), vehicle: Klucel (hydroxypropylcellulose) (HPC) 100 % of control | dose: 6.0 mg/kg/injection, schedule: Q01DX005 (ip), vehicle: Klucel (hydroxypropylcellulose) (HPC) 96 % of control

CN=P1(NC)NP(=NC)(NC)NP(=NC)(NC)NP(=NC)(NC)N1.[Cl-].[Cl-].[Cl-].[Cl-].[Pt+2] (centres undefined)
inactive: [20] 102 % of control | [21] 111 % of control | [22] 120 % of control | [17] 109 % of control

CN1CCN(C#CC(=O)c2ccc(Cl)cc2)CC1
inactive: dose: 7.5 mg/kg/injection, schedule: Q01DX005 (ip), vehicle: saline with Tween-80 114 % of control | dose: 15.0 mg/kg/injection, schedule: Q01DX005 (ip), vehicle: saline with Tween-80 117 % of control

COC1=C(OC)C(=O)C(C)(CC=C(C)C)CC1=O (centres undefined)
inactive: dose: 13.0 mg/kg/injection, schedule: Q01DX009 (ip), vehicle: saline + alcohol 113 % of control | dose: 25.0 mg/kg/injection, schedule: Q01DX009 (ip), vehicle: saline + alcohol 113 % of control | dose: 50.0 mg/kg/injection, schedule: Q01DX009 (ip), vehicle: saline + alcohol 103 % of control

CC1(C)N(/N=C/c2ccccc2)C(c2ccccc2)C(c2ccccc2)N1/N=C/c1ccccc1 (centres undefined)
inactive: [8] 86 % of control | [10] 89 % of control | dose: 200.0 mg/kg/injection, schedule: Q01DX005 (ip), vehicle: Klucel (hydroxypropylcellulose) (HPC) 87 % of control

CC(=O)Oc1cc2c3c(c1)CCCN3CCC2
inactive: dose: 1.25 mg/kg/injection, schedule: Q04DX003 (ip), vehicle: saline with Tween-80 91 % of control | dose: 2.5 mg/kg/injection, schedule: Q04DX003 (ip), vehicle: saline with Tween-80 104 % of control | dose: 5.0 mg/kg/injection, schedule: Q04DX003 (ip), vehicle: saline with Tween-80 100 % of control
